Experimental data reported in patent US20240408057A1, “Composition for preventing or treating cachexia and muscle loss” (METAFINES.CO.LTD., priority 2023, published 2024).

Experiments:
Myogenin = Myogenin expression in mouse muscle tissue, CT26 cachexia model; assay type: in vivo, Balb/c mice; conditions: CT26 Balb/c cachexia model, 21 days
Description: The mice were sacrificed, and the skeletal muscle in the quadriceps was extracted during autopsy, and tissue was homogenized, and proteins were extracted through RIPA lysis buffer, followed by Western blot analysis.

Wire hanging test = assay type: in vivo, Balb/c mice; conditions: CT26 Balb/c cachexia model; G4 to G6; compared to G3 megestrol (positive control)
Method: Along with the above, a wire hanging test was performed once a week, and the animal was placed on top of a wire cage, and then turned the cage upside down and hung over the home cage, and the waiting time until the animal fell was recorded and summarized in FIG. 53B.

Calpain 3 [1] = assay: Calpain 3 expression in mouse muscle tissue, CT26 cachexia model; assay type: in vivo, Balb/c mice; conditions: CT26 Balb/c cachexia model, 21 days, G6 IV 200 mpk
Description: In FIG. 47, each group represents the following.

MyHC = MyHC expression (Western blot) in CCM-treated C2C12 myotubes; assay type: cell-based, mouse; conditions: 72 hours, compared to other experimental groups (components alone and in combination)
Method: A C2C12 cell line was dispensed into a 6-well plate at 4.0×10^5 cells/well, and then cultured in DMEM medium containing 10% fetal bovine serum (FBS) under 37° C. and 5% CO2 conditions for one day. When the cell density reached about 80%, the medium was replaced with a differentiation medium and the cells were cultured for additional 3 days. After confirming completion of differentiation of the cells, the cells were treated with a mixture, in which the differentiation medium and cancer-cell conditioned medium (CCM) were mixed at a 1:1 ratio, to form a control group, and simultaneously, a test group was set up by treating with the calcium salts of Preparation Examples 1 to 3 according to three predetermined concentrations.
(§1) A C2C12 cell line was dispensed into a 6-well plate at 4.0×10^5 cells/well, and then cultured in DMEM medium containing 10% fetal bovine serum (FBS) under 37° C. and 5% CO2 conditions for one day. When the cell density reached about 80%, the medium was replaced with a differentiation medium and the cells were cultured for additional 3 days.

lactate = assay: Lactate in mouse blood, CT26 cachexia model; assay type: in vivo, Balb/c mice; conditions: CT26 Balb/c cachexia model, 21 days; G4 PO 200 mpk, G5 IV 100 mpk, G6 IV 200 mpk; vs vehicle control G2
Method: The mice were sacrificed, and IL-1β and lactate were analyzed using the blood serum collected at autopsy, and the results are summarized in FIGS. 48A and 48B.
In FIG. 48, each group represents the following.

[2] = Inhibition of weight loss in cancer cachexia animal model; assay type: in vivo, Balb/c mice; conditions: CT26 Balb/c cachexia model, G6 IV 200 mpk, p<0.05
Description: In FIG. 49, each group represents the following.

[3] = Drug concentration in blood and pharmacokinetics factors after IV and PO administration; assay type: in vivo; conditions: SD rats
Method: After the administration of each individual rat, blood was collected according to the elapsed time (0 to 48 hours), centrifuged, and the concentration of the administered drug in the blood and the pharmacokinetic factors (PK parameter) of the obtained plasma were analyzed through LC/MS/MS analysis, and the results are summarized in Table 1 below.

Calpain 3 [4] = assay: Calpain 3 expression (Western blot) in CCM-treated C2C12 myotubes; assay type: cell-based, mouse
Method: as §1, with “C2C12” for “A C2C12”, “cells/well” for “cells/well,”, “and” for “and then”, “days. […] After culturing for 72 hours, the cells were collected and analyzed for PDK-4, which is a target marker, by Western blot and the results are summarized in FIG. 6.” for “days.”
The experiment was performed in the same manner as in Experimental Example 3-1, except that Calpain 3 was analyzed as a target marker for Western blot, and the results are summarized in FIG. 7.
as §1

[5] = PO 2,000 mg/kg (1,000 mg/kg, BID), 1 day
[6] = PO 2,000 mg/kg (1,000 mg/kg, BID), 6 days

SMILES: O=C([O-])C(Cl)Cl.O=C1OC(C(O)CO)C([O-])=C1O.[Ca+2] (stereo not shown) [Preparation Example 1, calcium salts of ascorbic acid and dichloroacetic acid]
- expression level of Myogenin in quadriceps (Myogenin; G4 PO 200 mpk, G5 IV 100 mpk, G6 IV 200 mpk, vs vehicle control G2): increase in the expression levels
- expression of Myogenin in quadriceps (Myogenin; G4 to G6, compared to G3 megestrol 125 mpk oral): increasing the expression
- wire hanging test (Wire hanging test): level similar
- expression level of Calpain 3 in quadriceps (Calpain 3 [1]; G4 PO 200 mpk, G5 IV 100 mpk, vs vehicle control G2): increase in the expression level
- expression level of Calpain 3 in quadriceps (Calpain 3 [1]; compared to G3 megestrol 125 mpk): excellent effect of increasing the expression level
- expression of MyHC (MyHC): excellent effect of inhibiting the decrease of expression
- lactate in blood serum (lactate): decrease in the expression levels
- weight increase compared to G2 ([2]; 17th day): about 6%
- weight increase compared to G2 ([2]; 20th day): ~13%
- AUClast ([3]; IV 200 mg/kg, 1 day): 19770 ng·h/mL
- Cmax ([3]; IV 200 mg/kg, 1 day): 30240 ng/mL
- Tmax ([3]; IV 200 mg/kg, 1 day): 0.25 h
- t1/2 ([3]; IV 200 mg/kg, 1 day): 0.27 h
- AUClast ([3]; IV 200 mg/kg, 6 days): 7980 ng·h/mL
- Cmax ([3]; IV 200 mg/kg, 6 days): 2700 ng/mL
- Tmax ([3]; IV 200 mg/kg, 6 days): 0.00 h
- t1/2 ([3]; IV 200 mg/kg, 6 days): 2.72 h
- AUClast ([3]; PO 200 mg/kg, 1 day): 38780 ng·h/mL
- Cmax ([3]; PO 200 mg/kg, 1 day): 23910 ng/mL
- Tmax ([3]; PO 200 mg/kg, 1 day): 0.50 h
- t1/2 ([3]; PO 200 mg/kg, 1 day): 0.59 h
- AUClast ([3]; PO 200 mg/kg, 6 days): 34620 ng·h/mL
- Cmax ([3]; PO 200 mg/kg, 6 days): 6260 ng/mL
- Tmax ([3]; PO 200 mg/kg, 6 days): 0.00 h
- t1/2 ([3]; PO 200 mg/kg, 6 days): 2.72 h
- AUClast ([3]; PO 500 mg/kg, 1 day): 353650 ng·h/mL
- Cmax ([3]; PO 500 mg/kg, 1 day): 66440 ng/mL
- Tmax ([3]; PO 500 mg/kg, 1 day): 1.50 h
- t1/2 ([3]; PO 500 mg/kg, 1 day): 4.14 h
- AUClast ([3]; PO 500 mg/kg, 6 days): 147850 ng·h/mL
- Cmax ([3]; PO 500 mg/kg, 6 days): 21280 ng/mL
- Tmax ([3]; PO 500 mg/kg, 6 days): 0.00 h
- t1/2 ([3]; PO 500 mg/kg, 6 days): 5.58 h
- AUClast [3, 5]: 889770 ng·h/mL
- Cmax [3, 5]: 130920 ng/mL
- Tmax [3, 5]: 1.75 h
- t1/2 [3, 5]: 5.64 h
- AUClast [3, 6]: 575250 ng·h/mL
- Cmax [3, 6]: 77200 ng/mL
- Tmax [3, 6]: 0.00 h
- t1/2 [3, 6]: 3.11 h
- expression level of Calpain 3 (Calpain 3 [4]; C2C12 myotubes + CCM, 72 hours, compared to other experimental groups (components alone and in combination)): higher expression level
- expression level of Calpain 3 (Calpain 3 [4]; C2C12 myotubes, differentiation medium:CCM 1:1, 72 hours, three predetermined concentrations, vs CCM control): decrease in expression was inhibited
